Measurements: patent publication US10570129B2 (Zoetis Services LLC, priority 2015, dated 2020)

Key:
D. immitis microfilariae = assay: Dirofilaria immitis, microfilariae (DiMF) in vitro motility assay; type: cell-based; details: for minimal effective concentration: Dirofilaria immitis, 72 h, read-out: DiMF minimally effective dose (MEC)
Haemonchus contortus L3 = assay: microbe, parasite or virus in culture; type: cell-based; details: for minimal effective concentration: Haemonchus contortus, 96 h, read-out: HcL3 Minimal Effective Concentration (MEC)

## O=C(NCc1ccnc(Cl)c1)n1c2c(c3ccc(Cl)cc31)CN(C/C=C/c1ccc(F)c(Cl)c1)CC2 [Example 210, (E)-7-chloro-2-(3-(3-chloro-4-fluorophenyl)allyl)-N-((2-chloropyridin-4-yl)methyl)-1,2,3,4-tetrahydro-5H-pyrido[4,3-b]indole-5-carboxamide]
D. immitis microfilariae
  minimal effective concentration: 10 µM
Haemonchus contortus L3
  minimal effective concentration: 3.3 µM

## N#Cc1ccc(/C=C/CN2CCc3c(c4cc(C(F)(F)F)ccc4n3C(=O)NCc3ccnc(Cl)c3)C2)cc1 [Example 331, (E)-N-((2-chloropyridin-4-yl)methyl)-2-(3-(4-cyanophenyl)allyl)-8-(trifluoromethyl)-1,2,3,4-tetrahydro-5H-pyrido[4,3-b]indole-5-carboxamide]
D. immitis microfilariae
  minimal effective concentration: 24 µM
Haemonchus contortus L3
  minimal effective concentration: 0.7 µM

## N#Cc1ccc(/C=C/CN2CCc3c(c4cc(Br)ccc4n3C(=O)NCc3ccnc(Cl)c3)C2)cc1F [Example 180, (E)-8-bromo-N-((2-chloropyridin-4-yl)methyl)-2-(3-(4-cyano-3-fluorophenyl)allyl)-1,2,3,4-tetrahydro-5H-pyrido[4,3-b]indole-5-carboxamide]
D. immitis microfilariae
  minimal effective concentration: > 100 µM
Haemonchus contortus L3
  minimal effective concentration: 0.5 µM

## O=C(NCc1ccnc(Cl)c1)n1c2c(c3cc(Br)ccc31)CN(C/C=C/c1ccc(F)cc1F)CC2 [Example 181, (E)-8-bromo-N-((2-chloropyridin-4-yl)methyl)-2-(3-(2,4-difluorophenyl)allyl)-1,2,3,4-tetrahydro-5H-pyrido[4,3-b]indole-5-carboxamide]
D. immitis microfilariae
  minimal effective concentration: 32.3 µM
Haemonchus contortus L3
  minimal effective concentration: 0.2 µM

## N#Cc1ccc2c(c1)c1c(n2C(=O)NCc2ccnc(Cl)c2)CCN(C/C=C/c2ccc(F)c(Br)c2)C1 [Example 79, (E)-2-(3-(3-bromo-4-fluorophenyl)allyl)-N-((2-chloropyridin-4-yl)methyl)-8-cyano-1,2,3,4-tetrahydro-5H-pyrido[4,3-b]indole-5-carboxamide]
D. immitis microfilariae
  minimal effective concentration: > 100 µM
Haemonchus contortus L3
  minimal effective concentration: 0.3 µM

## O=C(NCc1ccnc(Cl)c1)n1c2c(c3ccc(OC(F)(F)F)cc31)CN(C/C=C/c1ccc(OC(F)(F)F)cc1)CC2 [Example 360, (E)-N-((2-chloropyridin-4-yl)methyl)-7-(trifluoromethoxy)-2-(3-(4-(trifluoro-methoxy)phenyl)allyl)-1,2,3,4-tetrahydro-5H-pyrido[4,3-b]indole-5-carboxamide]
D. immitis microfilariae
  minimal effective concentration: 13.6 µM
Haemonchus contortus L3
  minimal effective concentration: 7.7 µM

## O=C(NCc1ccnc(Cl)c1)n1c2c(c3ccc(Cl)cc31)CN(C/C=C/c1ccc(C(F)(F)F)cn1)CC2 [Example 206, (E)-7-chloro-N-((2-chloropyridin-4-yl)methyl)-2-(3-(5-(trifluoromethyl)-pyridin-2-yl)allyl)-1,2,3,4-tetrahydro-5H-pyrido[4,3-b]indole-5-carboxamide]
D. immitis microfilariae
  minimal effective concentration: 3.3 µM
Haemonchus contortus L3
  minimal effective concentration: 0.2 µM

## CCOc1ccc2c(c1)c1c(n2C(=O)NCc2ccnc(Cl)c2)CCN(C/C=C/c2ccc(Cl)cc2)C1 [Example 513, (E)-2-(3-(4-chlorophenyl)allyl)-N-((2-chloropyridin-4-yl)methyl)-8-ethoxy-1,2,3,4-tetrahydro-5H-pyrido[4,3-b]indole-5-carboxamide]
D. immitis microfilariae
  minimal effective concentration: 3.3 µM
Haemonchus contortus L3
  minimal effective concentration: 7.6 µM

## O=C(NCc1ccnc(Cl)c1)n1c2c(c3cc(Cl)ccc31)CN(C/C=C/c1ccc(Cl)c(Cl)c1)CC2 [Example 243, (E)-8-chloro-N-((2-chloropyridin-4-yl)methyl)-2-(3-(3,4-dichlorophenyl)allyl)-1,2,3,4-tetrahydro-5H-pyrido[4,3-b]indole-5-carboxamide]
D. immitis microfilariae
  minimal effective concentration: 10 µM
Haemonchus contortus L3
  minimal effective concentration: 1.3 µM

## Cc1ccc2c3c(n(C(=O)NCc4ccnc(Cl)c4)c2c1)CCN(C/C=C/c1ccc(Cl)c(Cl)c1)C3 [Example 145, (E)-N-((2-chloropyridin-4-yl)methyl)-2-(3-(3,4-dichlorophenyl)allyl)-7-methyl-1,2,3,4-tetrahydro-5H-pyrido[4,3-b]indole-5-carboxamide]
D. immitis microfilariae
  minimal effective concentration: 33 µM
Haemonchus contortus L3
  minimal effective concentration: 1 µM

## N#Cc1cccc2c1c1c(n2C(=O)NCc2ccnc(Cl)c2)CCN(C/C=C/c2ccc(Cl)cc2Cl)C1 [Example 4, (E)-N-((2-chloropyridin-4-yl)methyl)-9-cyano-2-(3-(2,4-dichlorophenyl)allyl)-1,2,3,4-tetrahydro-5H-pyrido[4,3-b]indole-5-carboxamide]
D. immitis microfilariae
  minimal effective concentration: 10 µM
Haemonchus contortus L3
  minimal effective concentration: > 100 µM

## N#Cc1ccc2c(c1)c1c(n2C(=O)NCc2ccnc(Cl)c2)CCN(C/C=C/c2ccc(F)cc2Br)C1 [Example 94, (E)-2-(3-(2-bromo-4-fluorophenyl)allyl)-N-((2-chloropyridin-4-yl)methyl)-8-cyano-1,2,3,4-tetrahydro-5H-pyrido[4,3-b]indole-5-carboxamide]
D. immitis microfilariae
  minimal effective concentration: > 100 µM
Haemonchus contortus L3
  minimal effective concentration: 0.1 µM

## N#Cc1ccc2c(c1)c1c(n2C(=O)NCc2ccnc(Cl)c2)CCN(C/C=C/c2ccc(F)c(C#N)c2)C1 [Example 98, (E)-N-((2-chloropyridin-4-yl)methyl)-8-cyano-2-(3-(3-cyano-4-fluorophenyl)allyl)-1,2,3,4-tetrahydro-5H-pyrido[4,3-b]indole-5-carboxamide]
D. immitis microfilariae
  minimal effective concentration: > 100 µM
Haemonchus contortus L3
  minimal effective concentration: 0.3 µM

## Cc1cc2c3c(n(C(=O)NCc4ccnc(Cl)c4)c2cc1C(F)(F)F)CCN(C/C=C/c1ccc(Cl)cc1)C3 [Example 330, (E)-2-(3-(4-chlorophenyl)allyl)-N-((2-chloropyridin-4-yl)methyl)-8-methyl-7-(trifluoromethyl)-1,2,3,4-tetrahydro-5H-pyrido[4,3-b]indole-5-carboxamide]
D. immitis microfilariae
  minimal effective concentration: > 100 µM
Haemonchus contortus L3
  minimal effective concentration: 0.5 µM

## O=C(NCc1ccnc(F)c1)n1c2c(c3ccc(OC(F)(F)F)cc31)CN(C/C=C/c1ccc(F)c(Cl)c1)CC2 [Example 375, (E)-2-(3-(3-chloro-4-fluorophenyl)allyl)-N-((2-fluoropyridin-4-yl)methyl)-7-(trifluoromethoxy)-1,2,3,4-tetrahydro-5H-pyrido[4,3-b]indole-5-carboxamide]
D. immitis microfilariae
  minimal effective concentration: 18.2 µM
Haemonchus contortus L3
  minimal effective concentration: 1.8 µM

## O=C(NCc1ccnc(Cl)c1)n1c2c(c3cc(Br)c(OC(F)(F)F)cc31)CN(C/C=C/c1ccc(Cl)cc1)CC2 [Example 492, (E)-8-bromo-2-(3-(4-chlorophenyl)allyl)-N-((2-chloropyridin-4-yl)methyl)-7-(trifluoromethoxy)-1,2,3,4-tetrahydro-5H-pyrido[4,3-b]indole-5-carboxamide]
D. immitis microfilariae
  minimal effective concentration: 0.5 µM
Haemonchus contortus L3
  minimal effective concentration: 1.8 µM

## O=C(NCc1ccnc(Cl)c1)n1c2c(c3c(Cl)cccc31)CN(C/C=C/c1ccc(Cl)cc1)CC2 [Example 214, (E)-9-chloro-2-(3-(4-chlorophenyl)allyl)-N-((2-chloropyridin-4-yl)methyl)-1,2,3,4-tetrahydro-5H-pyrido[4,3-b]indole-5-carboxamide]
D. immitis microfilariae
  minimal effective concentration: 18.2 µM
Haemonchus contortus L3
  minimal effective concentration: 0.5 µM

## O=C(NCc1ccnc(F)c1)n1c2c(c3cc(Cl)ccc31)CN(C/C=C/c1ccc(F)c(Cl)c1)CC2 [Example 258, (E)-8-chloro-2-(3-(3-chloro-4-fluorophenyl)allyl)-N-((2-fluoropyridin-4-yl)methyl)-1,2,3,4-tetrahydro-5H-pyrido[4,3-b]indole-5-carboxamide]
D. immitis microfilariae
  minimal effective concentration: 100 µM
Haemonchus contortus L3
  minimal effective concentration: 10 µM

## N#Cc1ccc2c(c1)c1c(n2C(=O)NCc2ccnc(Cl)c2)CCN(C/C=C/c2ccc(Cl)c(F)c2F)C1 [Example 82, (E)-2-(3-(4-chloro-2,3-difluorophenyl)allyl)-N-((2-chloropyridin-4-yl)methyl)-8-cyano-1,2,3,4-tetrahydro-5H-pyrido[4,3-b]indole-5-carboxamide]
D. immitis microfilariae
  minimal effective concentration: > 100 µM
Haemonchus contortus L3
  minimal effective concentration: 0.2 µM

## O=C(NCc1ccnc(Cl)c1)N1c2ccc(Cl)cc2C2CN(C/C=C/c3ccc(Cl)cc3)CCC21 (stereo not drawn) [Example 516, (E)-8-chloro-2-(3-(4-chlorophenyl)allyl)-N-((2-chloropyridin-4-yl)methyl)-1,2,3,4,4a,9b-hexahydro-5H-pyrido[4,3-b]indole-5-carboxamide]
D. immitis microfilariae
  DiMF minimally effective dose (MEC): 10.0 µM
Haemonchus contortus L3
  HcL3 Minimal Effective Concentration (MEC): 0.3 µM

## O=C(NCc1ccnc(Cl)c1)n1c2c(c3ccc(OC(F)(F)F)cc31)CN(C/C=C/c1c(F)cc(Cl)cc1F)CC2 [Example 339, (E)-2-(3-(4-chloro-2,6-difluorophenyl)allyl)-N-((2-chloropyridin-4-yl)-methyl)-7-(trifluoromethoxy)-1,2,3,4-tetrahydro-5H-pyrido[4,3-b]indole-5-carboxamide]
D. immitis microfilariae
  minimal effective concentration: 0.5 µM
Haemonchus contortus L3
  minimal effective concentration: 0.5 µM

## O=C(NCc1ccnc(Cl)c1)n1c2c(c3ccc(OC(F)(F)F)cc31)CN(Cc1cc3ccc(Cl)cc3cn1)CC2 [Example 365, 2-((7-chloroisoquinolin-3-yl)methyl)-N-((2-chloropyridin-4-yl)methyl)-7-(trifluoromethoxy)-1,2,3,4-tetrahydro-5H-pyrido[4,3-b]indole-5-carboxamide]
D. immitis microfilariae
  minimal effective concentration: 4.4 µM
Haemonchus contortus L3
  minimal effective concentration: > 100 µM

## N#Cc1ccc(/C=C/CN2CCc3c(c4cc(F)ccc4n3C(=O)NCc3ccnc(Cl)c3)C2)cc1 [Example 168, (E)-N-((2-chloropyridin-4-yl)methyl)-2-(3-(4-cyanophenyl)allyl)-8-fluoro-1,2,3,4-tetrahydro-5H-pyrido[4,3-b]indole-5-carboxamide]
D. immitis microfilariae
  minimal effective concentration: 10 µM
Haemonchus contortus L3
  minimal effective concentration: 0.5 µM

## O=C(NCc1ccnc(F)c1)n1c2c(c3cc(F)c(Cl)cc31)CN(C/C=C/c1ccc(F)c(Cl)c1)CC2 [Example 313, (E)-7-chloro-2-(3-(3-chloro-4-fluorophenyl)allyl)-8-fluoro-N-((2-fluoro-pyridin-4-yl)methyl)-1,2,3,4-tetrahydro-5H-pyrido[4,3-b]indole-5-carboxamide]
D. immitis microfilariae
  minimal effective concentration: 3.3 µM
Haemonchus contortus L3
  minimal effective concentration: 0.5 µM
